Results taken from patent US5466669A, “Immunostimulatory agent” (Morinaga Milk Industry Co., Ltd., priority 1993, dated 1995).

Tests used:
[1] = tested on: rat peritoneal mast cells; assay: Test 1: histamine release from rat peritoneal mast cells induced by calcium ionophore A23187; type: cell-based; details: for Histamine release (Relative %): A23187 5 μM, control (saline) = 100
Description: This test was performed to study the activity of the peptide of the present invention to promote the release of histamine from rat peritoneal mast cells induced by the calcium ionophore A23187.
Peritoneal cells were collected from Wistar rats after intraperitoneal injection of phosphate-buffered saline (consisting of 120 mM NaCl, 10 mM Na2 PO4, 3 mM KH2 PO4, pH 7.4). Their abdoments were massaged and the buffer containing the cells was recovered. The cells were centrifuged at 300×g for 15 min and washed twice with phosphate-buffered saline. The cells from several rats were pooled for use in the experiments.
Rat peritoneal cells containing about 1×10^5 mast cells per ml were used as the target cells. A 500 μl volume of the cell suspension was incubated with 100 μl volume of the test substance [purified peptide obtained by the method as in Example 1, or human lactoferrin (Sigma Chemical Co.), or bovine lactoferrin (Morinaga Milk industry Co.)] at 37° C. for 3O min. Thereafter, histamine release from the mast cells was induced by the addition of calcium ionophore A23187 (Sigma Chemical Co.) at a final concentration of 5 μM. After 10 min of incubation the cells were centrifuged at 300×g for 15 min and the supernatant was removed and deproteinized by the addition of 2 ml of HClO4 (2%). The deproteinized sample was then centrifuged at 2000×g for 20 min and the histamine content in the supernatant was determined by the fluorophotometric analyser technique (AutoAnalyzer: Technikon). Cells in the presence of phosphate-buffered saline served as control.

[2] = tested on: rat peritoneal mast cells; assay: Test 2: histamine release from rat peritoneal mast cells induced by α-toxin-producing Staphylococcus aureus cells; type: cell-based; details: for Histamine release (Relative %): S. aureus 121 about 1.0×10^8 cells per ml, control (saline) = 100
Description: This test was performed to study the activity of the peptide of the present invention to promote the release of histamine from rat peritoneal mast cells induced by α-toxin-producing Staphylococcus aureus cells.
Staphylococcus aureus 121, an α-toxin-producing strain, was cultured overnight in Brain Heart Infusion broth at 37° C. The bacterial cells were collected by centrifugation at 4000×g for 20 min, washed with phosphate-buffered saline, and suspended in the same buffer for use in the experiment. Rat peritoneal cells were prepared as in Test 1.
The same method as in Test 1 was used, except histamine release from the mast cells was induced by the addition of α-toxin-producing Staphylococcus aureus cells at a final concentration of about 1.0×10^8 cells per ml.

[3] = tested on: human polymorphonuclear neutrophils; assay: Test 3: leukotriene release from human polymorphonuclear neutrophils induced by calcium ionophore A23187; type: cell-based; details: for Leukotriene released (ng) B4 / Leukotriene released (ng) C4 / Leukotriene released (ng) 20-COOH / Leukotriene released (ng) 20-OH: A23187 5 μM; for Leukotriene released (ng) B4: saline control 12; for Leukotriene released (ng) C4: saline control 18; for Leukotriene released (ng) 20-COOH: saline control 31; for Leukotriene released (ng) 20-OH: saline control 55; for Leukotriene released (ng) (Total B4): sum of B4, 20-OH and 20-COOH, saline control 98
Description: This test was performed to study the activity of the peptide of the present invention to promote the release of leukotriene B4 from human polymorphonuclear neutrophils induced by the calcium ionophore A23187.
Human polymorphonuclear neutrophils were prepared by fractionation of leukocytes from heparinized blood of healthy donors on a Ficoll-metrizoategradient followed by dextran sedimentation. The cells were centrifuged at 300×g, and washed three times with phosphate-buffered saline, after which less than 2% of the platelets remained. Erythrocytes were removed by exposing the cells to hypotonic conditions. The purity of the polymorphonuclear neutrophil fraction used was greater than 97% as confirmed by light microscopy.
For analysis of leukotriene release, human neutrophils suspended in phosphate-buffered saline at approximately 1×10^7 cells per ml were used as the target cells. The cells were incubated for 30 min in the presence of test substance [(purified peptide obtained by the method as in Example 1, or human lactoferrin (Sigma Chemical Co.), or bovine lactoferrin (Morinaga Milk Industry Co.)]. Leukotriene release from the neutrophils was then induced by the addition of calcium ionophore A23187 (Sigma chemical Co.) at a final concentration of 5 μM. After 30 min, the supernatants of the stimulated cells were deproteinized by addition of 2 ml of methanol-acetonitrile (1:1) overlaid with nitrogen and frozen for 12 h at -70° C. After centrifugation at 1000×g for 15 min the supernatant was evaporated to dryness in a freeze dryer, suspended in 0.5 ml of methanol-water (30:70), overlaid with nitrogen, and stored overnight at -70° C. The samples were centrifuged at 1000×g and the supernatant was assayed for the presence of leukotrienes by high pressure liquid chromatography using a reverse-phase column of Nucleosil (C18; 5 μm particles) at a column temperature of 40° C. The solvent system was a mixture of phosphate buffer (17 mM K2 HPO4 containing 0.05% EDTA), acetonitrile, and methanol (50:30:20) adjusted to pH 5.0 with phosphoric acid. The absorbance at 280 nm of the column effluent was monitored and recorded. The concentration of each eluted leukotriene was determined from the peak area by means of a computing integrator. The leukotrienes were identified from their retention times with reference to known standards. The minimum detectable quantity was 1 ng in each instance.

peritoneal mast cells = details: Theobald et al. 1987; cited from earlier work

Phe-Lys-Cys-Arg-Arg-Trp-Gln-Trp-Arg-Met-Lys-Lys-Leu-Gly-Ala-Pro-Ser-Ile-Thr-Cys-Val-Arg-Arg-Ala-Phe (FKCRRWQWRMKKLGAPSITCVRRAF; printed: Phe-Lys-Cys-Arg-Arg-Trp-Gln-Trp-Arg-Met-Lys-Lys-Leu-Gly-Ala-Pro-Ser-Ile-Thr-Cys-Val-Arg-Arg-Ala-Phe) [purified peptide]
Histamine release (Relative %) ([1]; 1 ppm test substance): 135 ± 10 Relative % | activity to promote the release of histamine from mast cells induced by A23187 (in words) ([1]; 1 to 100 ppm): has activity to promote the release of histamine | Histamine release (Relative %) ([1]; 10 ppm test substance): 145 ± 15 Relative % | Histamine release (Relative %) ([1]; 100 ppm test substance): 175 ± 20 Relative % | Histamine release (Relative %) ([2]; 1 ppm test substance): 200 ± 60 Relative % | activity to promote the release of histamine from mast cells induced by α-toxin-producing Staphylococcus aureus cells (in words) ([2]; 1 to 100 ppm): has activity to promote the release of histamine | Histamine release (Relative %) ([2]; 10 ppm test substance): 250 ± 50 Relative % | Histamine release (Relative %) ([2]; 100 ppm test substance): 460 ± 240 Relative % | Leukotriene released (ng) B4 ([3]; 1 ppm test substance): 12 ng | Leukotriene released (ng) C4 ([3]; 1 ppm test substance): 23 ng | Leukotriene released (ng) 20-COOH ([3]; 1 ppm test substance): 51 ng | Leukotriene released (ng) 20-OH ([3]; 1 ppm test substance): 70 ng | Leukotriene released (ng) (Total B4) ([3]; 1 ppm test substance): 133 ng | activity to promote the release of leukotriene B4 from polymorphonuclear neutrophils (in words) ([3]; 1 to 100 ppm): promotes the release of leukotriene B4 | Leukotriene released (ng) B4 ([3]; 10 ppm test substance): 14 ng | Leukotriene released (ng) C4 ([3]; 10 ppm test substance): 17 ng | Leukotriene released (ng) 20-COOH ([3]; 10 ppm test substance): 61 ng | Leukotriene released (ng) 20-OH ([3]; 10 ppm test substance): 116 ng | Leukotriene released (ng) (Total B4) ([3]; 10 ppm test substance): 191 ng | Leukotriene released (ng) B4 ([3]; 100 ppm test substance): 18 ng | Leukotriene released (ng) C4 ([3]; 100 ppm test substance): 23 ng | Leukotriene released (ng) 20-COOH ([3]; 100 ppm test substance): 104 ng | Leukotriene released (ng) 20-OH ([3]; 100 ppm test substance): 162 ng | Leukotriene released (ng) (Total B4) ([3]; 100 ppm test substance): 284 ng

lactoferrin
effect on calcium ionophore-induced release of histamine from peritoneal mast cells (in words) (peritoneal mast cells): has activity to inhibit calcium ionophore-induced release of histamine
